Patent US20240351981A1, “NOVEL BISMALEIMIDE COMPOUNDS HAVING IMPROVED SOLUBILITY AND THEIR USE IN CURABLE COMPOSITIONS” (Evonik Operations GmbH, priority 2021, published 2024)

Assay: Solubility of bismaleimides in organic solvents (saturated solution, gravimetric)
Type: physicochemical
Settings: in comparison to other aliphatic bismaleimides
Experimental: The solubility of compounds in the present invention is determined as follows: • 10 g of a sample are weighed into a 100 ml conical flask. 50 ml of a solvent are added to the flask and the mixture is stirred with magnetic bar for 1 h at 25° C. to assure the formation of a saturated solution. If the entire sample is dissolved, additional portion of the sample should be added and the mixture should be stirred further for 1 h. In the end, a portion of undissolved material should be clearly seen at the bottom of the flask. After that, the supematant is filtered through a folded filter. Some 15 g of the filtrate are weighed into a tared round-bottom flask, and the solvent is evaporated to dryness on a rotary evaporator at 90° C. under reduced pressure. Finally, the flask is dried in a vacuum drying cabinet at 120° C. for 2 h under reduced pressure, cooled down to room temperature in a desiccator and weighed.
The solubility value is then calculated as:
The solubility of the example and comparative examples was determined as follows: • 10 g of a sample were weighed into a 100 ml conical flask. 50 ml of a solvent were added to the flask and the mixture was stirred with magnetic bar for 1 h at 25° C. to assure the formation of a saturated solution. If the entire sample was dissolved, additional portion of the sample should be added and the mixture should be stirred further for 1 h. […]

CC1CC(C(CN2C(=O)C=CC2=O)CN2C(=O)C=CC2=O)CC(C)(C)C1 (stereo not shown) [2-(3,3,5-trimethylcyclohexyl)propane-1,3-bismaleimide]
Solubility in different organic solvents (in words): highly soluble
